Measured values taken from US20260085062A1, “NOVEL COMPOUNDS AS CK2 INHIBITORS” (Cambridge Enterprise Limited, priority 2022, published 2026).

Experiments:
[1] = target: T1, CK2α (Homo sapiens, UniProt P68400); experiment: Biochemical assay for inhibitors of CK2α kinase activity (ADP-Glo); conditions: 0.2 nM CK2α, 50 μM peptide substrate, 15 μM ATP, read-out: Assay 1: CK2α Enzyme IC50
T1 construct: CK2α (residues 2-329) was produced in Escherichia coli BL21 (DE3) for kinase activity screening; His6 (N, cleaved yes); made in house; host or cells: Escherichia coli BL21 (DE3)
T1 sequence (P68400 2-329): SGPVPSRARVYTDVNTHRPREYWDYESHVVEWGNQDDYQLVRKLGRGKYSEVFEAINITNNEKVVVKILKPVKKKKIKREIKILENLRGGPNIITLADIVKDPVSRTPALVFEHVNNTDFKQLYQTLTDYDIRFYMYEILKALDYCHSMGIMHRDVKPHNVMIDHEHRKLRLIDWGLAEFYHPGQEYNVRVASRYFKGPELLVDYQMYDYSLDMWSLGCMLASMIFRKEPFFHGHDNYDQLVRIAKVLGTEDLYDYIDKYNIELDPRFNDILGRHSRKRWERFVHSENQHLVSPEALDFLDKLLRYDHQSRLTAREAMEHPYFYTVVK

[2] = target: T2, CLK2 (Homo sapiens, UniProt P49760); experiment: Biochemical assay for inhibitors of CLK2 kinase activity (ADP-Glo); conditions: 20 nM CLK2, 50 μM peptide substrate, 100 μM ATP, read-out: Assay 2: CLK2 Enzyme IC50
T2 construct: purchased Carna Biosciences 04-127

[3] = target: T3, intracellular CK2α (Homo sapiens, UniProt P19784); experiment: Cell-based NanoBRET assay for inhibitor binding to intracellular CK2α; conditions: HCT116 cells transiently transfected with CSNK2A2-NanoLuc fusion vector; Tracer K-5; 2 h; read-out: Assay 3: NanoBRET ™ assay for binding to intracellular CK2α
T3 construct: host or cells: HCT116 (ATCC CCL-247)
Outline: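 Apparent affinity came from BRET ratio (acceptor/donor ×1,000), with donor read at 450 nm and acceptor at 610 or 630 nm. Compounds competed off a tracer added at fixed concentration to cells carrying a NanoLuc-CK2α fusion.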

T2 sequence (P49760 whole entry): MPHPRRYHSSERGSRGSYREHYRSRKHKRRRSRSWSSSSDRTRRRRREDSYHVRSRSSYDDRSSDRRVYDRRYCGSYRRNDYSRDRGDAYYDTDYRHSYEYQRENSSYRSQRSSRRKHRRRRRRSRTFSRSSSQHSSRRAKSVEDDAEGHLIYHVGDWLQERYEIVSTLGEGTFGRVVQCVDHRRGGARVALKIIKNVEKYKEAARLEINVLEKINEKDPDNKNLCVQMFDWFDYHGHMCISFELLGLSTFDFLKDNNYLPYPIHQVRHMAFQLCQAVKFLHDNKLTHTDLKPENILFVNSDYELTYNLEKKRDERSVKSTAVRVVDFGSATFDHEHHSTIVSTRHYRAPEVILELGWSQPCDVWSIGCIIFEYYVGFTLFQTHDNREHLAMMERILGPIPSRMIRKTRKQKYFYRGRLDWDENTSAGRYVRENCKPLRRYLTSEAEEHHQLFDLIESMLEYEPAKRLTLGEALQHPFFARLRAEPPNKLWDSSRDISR
T3 sequence (P19784 whole entry, the tested form may be a part): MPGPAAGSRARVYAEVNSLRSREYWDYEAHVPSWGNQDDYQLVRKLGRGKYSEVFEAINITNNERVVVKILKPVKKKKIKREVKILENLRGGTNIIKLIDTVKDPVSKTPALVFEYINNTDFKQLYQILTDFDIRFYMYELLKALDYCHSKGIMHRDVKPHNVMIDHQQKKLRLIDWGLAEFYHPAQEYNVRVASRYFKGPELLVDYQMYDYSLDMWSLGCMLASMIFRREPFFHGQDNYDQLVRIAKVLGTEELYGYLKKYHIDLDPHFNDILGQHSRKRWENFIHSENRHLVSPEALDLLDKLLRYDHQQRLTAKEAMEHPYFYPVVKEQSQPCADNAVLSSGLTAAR

Structure (SMILES)	IC50 [1] [nM]	IC50 [2] [nM]	IC50 [3] [nM]
c1cc2[nH]c(CNCCCCOCCOc3cc(-c4cnoc4)cc4[nH]ncc34)cc2cc1OC1CCC1 [Example 54, N-((5-cyclobutoxy-1H-indol-2-yl)methyl)-4-(2-((6-(isoxazol-4-yl)-1H-indazol-4-yl)oxy)ethoxy)butan-1-amine]	1.44	217	128
FC(F)(F)c1ccc2[nH]c(CNCCCCOCCNc3cc(-c4ccnnc4)cc4[nH]ncc34)cc2c1 [Example 93, 6-(pyridazin-4-yl)-N-(2-(4-(((5-(trifluoromethyl)-1H-indol-2-yl)methyl)amino)butoxy)ethyl)-1H-indazol-4-amine]	0.77	569	180
c1cc2[nH]c(CNCCCCOC3CN(c4cc(-c5cnoc5)cc5[nH]ncc45)C3)cc2cc1OC1CCC1 [Example 119, N-((5-cyclobutoxy-1H-indol-2-yl)methyl)-4-((1-(6-(isoxazol-4-yl)-1H-indazol-4-yl)azetidin-3-yl)oxy)butan-1-amine]	22.6	617	1620
O=C(CCNCc1ccc(OC(F)(F)F)c(Cl)c1)NCCCNc1cccc2[nH]ncc12 [Example 163, N-(3-((1H-indazol-4-yl)amino)propyl)-3-((3-chloro-4-(trifluoromethoxy)benzyl)amino)propanamide]	217	6570	26800
O=C(CCNCc1ccc(OC(F)(F)F)c(CO)c1)NCCCNc1cc(-n2cnnc2)cc2[nH]ncc12 [Example 44, N-(3-((6-(4H-1,2,4-triazol-4-yl)-1H-indazol-4-yl)amino)propyl)-3-((3-(hydroxymethyl)-4-(trifluoromethoxy)benzyl)amino)propanamide]	1.46	39.6	16800
COC(=O)CCc1cc(NCCOCCCCNCc2cc3cc(C(F)(F)F)ccc3[nH]2)c2cn[nH]c2c1 [Example 88, methyl 3-(4-((2-(4-(((5-(trifluoromethyl)-1H-indol-2-yl)methyl)amino)butoxy)ethyl)amino)-1H-indazol-6-yl)propanoate]	> 1000	41300	> 50000
O=C(CCNCc1ccc(OC(F)(F)F)c(Cl)c1)NCCCNc1cc(-c2ncon2)cc2[nH]ncc12 [Example 189, N-(3-((6-(1,2,4-oxadiazol-3-yl)-1H-indazol-4-yl)amino)propyl)-3-((3-chloro-4-(trifluoromethoxy)benzyl)amino)propanamide]	19.2	3500	1630
N#Cc1cc(CNCCC(=O)NCCCNc2cc(-n3cnnc3)cc3[nH]ncc23)ccc1C1CC1 [Example 45, N-(3-((6-(4H-1,2,4-triazol-4-yl)-1H-indazol-4-yl)amino)propyl)-3-((3-cyano-4-cyclopropylbenzyl)amino)propanamide]	0.95	123	6380
COc1cc(-c2cc(NCCOCCCCNCc3cc4cc(C(F)(F)F)ccc4[nH]3)c3cn[nH]c3c2)ccn1 [Example 87, 6-(2-methoxypyridin-4-yl)-N-(2-(4-(((5-(trifluoromethyl)-1H-indol-2-yl)methyl)amino)butoxy)ethyl)-1H-indazol-4-amine]	12.3	1760	1300
N#CCc1cc(NCCOCCCCNCc2cc(CO)cc(OC(F)(F)F)c2)c2cn[nH]c2c1 [Example 204, 2-(4-((2-(4-((3-(hydroxymethyl)-5-(trifluoromethoxy)benzyl)amino)butoxy)ethyl)amino)-1H-indazol-6-yl)acetonitrile]	46.2	3440	405
C[C@H](COCCCCNCc1cc(CO)cc(OC(F)(F)F)c1)Nc1cc(-c2cnns2)cc2[nH]ncc12 [Example 208, (R)-(3-(((4-(2-((6-(1,2,3-thiadiazol-5-yl)-1H-indazol-4-yl)amino)propoxy)butyl)amino)methyl)-5-(trifluoromethoxy)phe-nyl)methanol]	8.92	69.7	69.9
N#Cc1[nH]ncc1-c1cc(NCCCNC(=O)CCNCc2ccc(OC(F)(F)F)c(Cl)c2)c2cn[nH]c2c1 [Example 156, 3-((3-chloro-4-(trifluoromethoxy)benzyl)amino)-N-(3-((6-(5-cyano-1H-pyrazol-4-yl)-1H-indazol-4-yl)amino)propyl)propanamide]	0.64	71	108

The next lines start with the values.

IC50 [1] [nM]	IC50 [2] [nM]	IC50 [3] [nM]	Structure (SMILES)
0.33	407	5090	O=C(CCNCc1ccc(-c2ccccc2)c(Cl)c1)NCCCNc1cc(-c2nn[nH]n2)cc2[nH]ncc12 [Example 79, N-(3-((6-(2H-tetrazol-5-yl)-1H-indazol-4-yl)amino)propyl)-3-(((2-chloro-[1,1′-biphenyl]-4-yl)methyl)amino)propanamide]
38.2	594	2960	OCc1cc(CNC2CC(COCCOc3cc(-c4cnnc(O)c4)cc4[nH]ncc34)C2)cc(OC(F)(F)F)c1 (stereo not drawn) [Example 200]
0.29	31.7	249	O=C(CCNCc1ccc(-c2ccccc2)c(Cl)c1)NCCCNc1cc(-n2cnnc2)cc2[nH]ncc12 [Example 11, N-(3-((6-(4H-1,2,4-triazol-4-yl)-1H-indazol-4-yl)amino)propyl)-3-(((2-chloro-[1,1′-biphenyl]-4-yl)methyl)amino)propanamide]
50.5	2150	2520	N#CCc1cc(CNCCCCOC2CN(c3cc(-c4ccnnc4)cc4[nH]ncc34)C2)cc(C(F)(F)F)c1 [Example 114, 2-(3-(((4-((1-(6-(pyridazin-4-yl)-1H-indazol-4-yl)azetidin-3-yl)oxy)butyl)amino)methyl)-5-(trifluoromethyl)phenyl)acetonitrile]
1.38	226	124	O=C(CCNCc1ccc(-c2ccccc2)c(Cl)c1)NCCCNc1cc(-c2ccncc2)cc2[nH]ncc12 [Example 1, 3-(((2-Chloro-[1,1′-biphenyl]-4-yl)methyl)amino)-N-(3-((6-(pyridin-4-yl)-1H-indazol-4-yl)amino)propyl)propanamide]
10.6	665	377	C[C@@H](CCCOCCNc1cc(-n2cnnc2)cc2[nH]ncc12)NCc1cc(CO)cc(OC(F)(F)F)c1 [Example 192, (S)-(3-(((5-(2-((6-(4H-1,2,4-triazol-4-yl)-1H-indazol-4-yl)amino)ethoxy)pentan-2-yl)amino)methyl)-5-(trifluoromethoxy)phenyl)methanol]
0.77	33.4	135	O=C(CCNCc1ccc(-c2ccccc2)c(Cl)c1)NCCCNc1cc(-c2cn[nH]c2)cc2[nH]ncc12 [Example 3, N-(3-((6-(1H-pyrazol-4-yl)-1H-indazol-4-yl)amino)propyl)-3-(((2-chloro-[1,1′-biphenyl]-4-yl)methyl)amino)propanamide]
13	333	2870	FC(F)(F)Oc1ccc(CNCCCCOC2CN(c3cc(-c4cnoc4)cc4[nH]ncc34)C2)cc1Cl [Example 137, N-(3-chloro-4-(trifluoromethoxy)benzyl)-4-((1-(6-(isoxazol-4-yl)-1H-indazol-4-yl)azetidin-3-yl)oxy)butan-1-amine]
